{"source": "ChEMBL document CHEMBL1149544", "about": "“R-(-)-N-alkyl-11-hydroxy-10-hydroxymethyl- and 10-methyl-aporphines as 5-HT1A receptor ligands” (Bioorg Med Chem Lett, 2007)", "key": {"D(2) dopamine receptor": {"target": "D(2) dopamine receptor (Rattus norvegicus, UniProt P61169)", "sequence (P61169 whole entry)": "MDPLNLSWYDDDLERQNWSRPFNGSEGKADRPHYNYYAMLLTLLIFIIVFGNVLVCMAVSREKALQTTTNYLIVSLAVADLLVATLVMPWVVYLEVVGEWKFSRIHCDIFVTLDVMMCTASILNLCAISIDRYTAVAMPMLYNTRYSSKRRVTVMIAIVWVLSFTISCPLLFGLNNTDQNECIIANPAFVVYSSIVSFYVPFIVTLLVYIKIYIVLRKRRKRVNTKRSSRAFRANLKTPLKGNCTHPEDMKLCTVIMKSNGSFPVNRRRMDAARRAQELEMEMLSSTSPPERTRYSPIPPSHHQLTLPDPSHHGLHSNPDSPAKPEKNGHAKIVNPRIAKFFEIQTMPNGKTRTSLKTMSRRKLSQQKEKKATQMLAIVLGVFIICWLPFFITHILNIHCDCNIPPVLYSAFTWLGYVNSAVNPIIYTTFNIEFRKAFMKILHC", "experiment": "Displacement of [3H]nemonapride from rat dopamine D2 receptor"}, "D(1A) dopamine receptor": {"target": "D(1A) dopamine receptor (Rattus norvegicus, UniProt P18901)", "sequence (P18901 whole entry)": "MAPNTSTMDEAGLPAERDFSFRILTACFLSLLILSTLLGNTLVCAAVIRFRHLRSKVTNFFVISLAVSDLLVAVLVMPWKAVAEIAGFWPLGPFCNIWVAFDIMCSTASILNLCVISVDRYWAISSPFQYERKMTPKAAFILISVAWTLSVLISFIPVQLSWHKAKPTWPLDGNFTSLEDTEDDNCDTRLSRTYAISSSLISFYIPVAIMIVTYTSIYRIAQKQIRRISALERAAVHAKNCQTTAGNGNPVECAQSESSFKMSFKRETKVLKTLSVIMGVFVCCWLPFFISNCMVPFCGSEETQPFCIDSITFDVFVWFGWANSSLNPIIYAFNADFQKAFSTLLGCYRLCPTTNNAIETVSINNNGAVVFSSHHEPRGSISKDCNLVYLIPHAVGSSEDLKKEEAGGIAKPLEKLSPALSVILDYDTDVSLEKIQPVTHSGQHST", "experiment": "Displacement of [3H]SCH-23390 from rat dopamine D1 receptor"}, "[1]": {"target": "T1, 5-hydroxytryptamine receptor 1A (Rattus norvegicus, UniProt P19327)", "T1 sequence (P19327 whole entry)": "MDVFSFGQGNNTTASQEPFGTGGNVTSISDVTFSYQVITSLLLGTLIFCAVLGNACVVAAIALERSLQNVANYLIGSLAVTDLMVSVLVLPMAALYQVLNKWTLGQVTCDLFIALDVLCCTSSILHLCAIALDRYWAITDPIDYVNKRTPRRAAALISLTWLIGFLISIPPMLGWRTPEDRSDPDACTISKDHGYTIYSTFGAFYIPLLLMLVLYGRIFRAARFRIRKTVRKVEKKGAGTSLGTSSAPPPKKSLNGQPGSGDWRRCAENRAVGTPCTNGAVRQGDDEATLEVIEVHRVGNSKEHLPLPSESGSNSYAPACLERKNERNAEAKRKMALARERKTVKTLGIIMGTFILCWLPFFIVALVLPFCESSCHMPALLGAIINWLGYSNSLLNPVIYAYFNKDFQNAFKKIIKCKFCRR", "experiment": "Displacement of [3H]8-OH-DPAT from rat 5HT1A receptor"}, "[2]": {"target": "5-hydroxytryptamine receptor 2A (Rattus norvegicus, UniProt P14842)", "sequence (P14842 whole entry)": "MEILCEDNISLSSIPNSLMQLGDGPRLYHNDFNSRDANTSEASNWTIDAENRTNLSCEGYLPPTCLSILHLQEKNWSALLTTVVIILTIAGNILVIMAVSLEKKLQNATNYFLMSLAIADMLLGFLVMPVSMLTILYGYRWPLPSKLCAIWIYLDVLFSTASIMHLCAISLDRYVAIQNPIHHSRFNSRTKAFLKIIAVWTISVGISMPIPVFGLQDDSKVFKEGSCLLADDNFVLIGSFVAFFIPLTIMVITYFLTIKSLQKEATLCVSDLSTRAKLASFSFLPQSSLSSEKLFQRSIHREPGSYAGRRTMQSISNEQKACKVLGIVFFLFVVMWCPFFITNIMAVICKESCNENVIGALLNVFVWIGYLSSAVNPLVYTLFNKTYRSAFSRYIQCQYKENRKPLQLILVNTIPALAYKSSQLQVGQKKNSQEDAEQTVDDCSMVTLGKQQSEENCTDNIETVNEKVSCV", "experiment": "Displacement of [3H]ketanserin from rat 5HT2A receptor"}, "Rattus norvegicus": {"species": "Rattus norvegicus", "experiment": "Selectivity for rat 5HT1A over rat 5HT2A"}}}
{"smiles": "CCCN1CCc2cc(OC)cc3c2[C@H]1Cc1ccc(C)c(O)c1-3", "values": [{"measurement": "Ki", "setting": "D(2) dopamine receptor", "value": 1350, "unit": "nM"}, {"measurement": "Ki", "setting": "D(1A) dopamine receptor", "value": 2790, "unit": "nM"}, {"measurement": "Ki", "setting": "[1]", "value": 480, "unit": "nM"}]}
{"smiles": "CCCN1CCc2cccc3c2[C@H]1Cc1ccc(CO)c(O)c1-3", "values": [{"measurement": "Ki", "setting": "D(2) dopamine receptor", "value": 6060, "unit": "nM"}, {"measurement": "Ki", "setting": "D(1A) dopamine receptor", "value": 1980, "unit": "nM"}, {"measurement": "Ki", "setting": "[1]", "value": 375, "unit": "nM"}]}
{"smiles": "CN1CCc2cccc3c2[C@H]1Cc1ccc(CO)c(O)c1-3", "values": [{"measurement": "Ki", "setting": "D(2) dopamine receptor", "value": 7000, "unit": "nM"}, {"measurement": "Ki", "setting": "D(1A) dopamine receptor", "value": 1390, "unit": "nM"}, {"measurement": "Ki", "setting": "[1]", "value": 2.4, "unit": "nM"}, {"measurement": "Ki", "setting": "[2]", "value": 137, "unit": "nM"}, {"measurement": "Ratio Ki", "setting": "Rattus norvegicus", "value": 57}]}
{"smiles": "COc1cc2c3c(c1)-c1c(ccc(C)c1O)C[C@H]3N(C)CC2", "values": [{"measurement": "Ki", "setting": "D(2) dopamine receptor", "value": 3760, "unit": "nM"}, {"measurement": "Ki", "setting": "D(1A) dopamine receptor", "value": 1780, "unit": "nM"}, {"measurement": "Ki", "setting": "[1]", "value": 21.5, "unit": "nM"}, {"measurement": "Ki", "setting": "[2]", "value": 271, "unit": "nM"}, {"measurement": "Ratio Ki", "setting": "Rattus norvegicus", "value": 108}]}
{"smiles": "Cc1ccc2c(c1O)-c1cccc3c1[C@@H](C2)N(C)CC3", "values": [{"measurement": "Ki", "setting": "D(2) dopamine receptor", "value": 11500, "unit": "nM"}, {"measurement": "Ki", "setting": "D(1A) dopamine receptor", "value": 9650, "unit": "nM"}, {"measurement": "Ki", "setting": "[1]", "value": 216, "unit": "nM"}]}
